“Also recorded” adds a separate entry of the source.
Legend:
[1] = system: rats; assay: Acute toxicity LD50 after oral administration to rats; format: in vivo; conditions: in 20 hours
Procedure: The compound of the present invention is a low molecular weight dipeptide derivative, so the toxicity is low. For example, the acute toxicity LD50 of the compound 1 shown in Table 1 in 20 hours after oral administration to rats is over 1 g/kg.

[2] = system: Rat Hypercalcemia Induced by PTHrp(1-34); assay: Rat hypercalcemia induced by PTHrp(1-34), oral administration; format: in vivo, Wistar rats
Excerpt: (§1) The active ingredient of the present invention normalizes the blood calcium concentration in rat hypercalcemia induced by PTHrp(1-34). PTHrp (parathyroid hormone-related protein) is a protein identified as the factor inducing hypercalcemia in humans. The fragment comprised of the 1 to 34th amino acid residues, that is, PTHrp(1-34), is the active type. The PTHrp(1-34) promotes bone resorption in vitro and induces hypercalcemia if administered to rats.
(§2) Using this model, the compound of the present invention was administered to Wistar rats, then PTHrp(1-34) was administered and the blood calcium concentration was measured after one hour after administration. […] That is, the compound of the present invention suppresses hypercalcemia induced by PTHrp(1-34), so is useful as a prophylactic or therapeutic agent for bone diseases.
To Wistar rats (5 weeks old, male, 90 to 110 g, 5 animals in each group), 40 mg/kg body weight of the compounds listed in Table 1 were administered orally. Four hours later, 5 nmole/kg of PTHrp(1-34) was intravenously injected. One hour after the administration of PTHrp(1-34), a blood sample was collected from each animal and the blood calcium concentration was measured by the octocresolphthalein complexone method.
Note that for reference, a similar evaluation was made of L-trans-epoxysuccinyl-L-leucineamide (e-guanide)-butane (E-64) Japanese Unexamined Patent Publication (Kokai) No. 63-284127 and the Z-Phe-Ala-CH2 F described in Japanese Examined Patent Publication (Kokoku) No. 4-1737.

[3] = system: Rat Hypercalcemia Induced by PTHrp(1-34); assay: Rat hypercalcemia induced by PTHrp(1-34), subcutaneous administration; format: in vivo, Wistar rats; conditions: 40 mg/kg subcutaneously at the back; 2 h later PTHrp(1-34) 5 nmole/kg i.v.; blood 1 h after PTHrp; n = 5; PTHrp-only group 11.28 ± 0.08, untreated 10.68 ± 0.09
Excerpt: as §1, §2
In the same way as Example 7, to Wistar rats (5 weeks old, male, 90 to 110 g, 5 animals in each group), 40 mg/kg body weight of the compounds listed in Table 1 were administered subcutaneously at the back. Two hours later, 5 nmole/kg of PTHrp(1-34) was intravenously injected. One hour after the administration of PTHrp(1-34), a blood sample was collected from each animal and the blood calcium concentration was measured by the octocresolphthalein complexone method.

[4] = 40 mg/kg orally; 4 h later PTHrp(1-34) 5 nmole/kg i.v.; blood 1 h after PTHrp; n = 5; PTHrp-only group 11.87 ± 0.14, untreated 11.42 ± 0.14

SMILES	acute toxicity LD50 [1]	Ca conc. ± standard error (average blood calcium concentration) [2, 4] [mg/dL]	effect on rise in blood calcium concentration (in words) ([2]; oral administration, 40 mg/kg, vs group treated with PTHrp(1-34) only)	Ca conc. ± standard error (average blood calcium concentration) [3] [mg/dL]	effect on rise in blood calcium concentration (in words) ([2]; oral administration, 40 mg/kg, vs group treated with PTHrp(1-34) only; 40 mg/kg)
CCCCC(NC(=O)C(CC(C)C)NC(=O)OCc1ccccc1)C(=O)CF (stereo not drawn) [Z-Leu-Nle-CH2 F, 3-(N-benzyloxycarbonyl-leucylamide)-1-fluoro-2-heptanone]	over 1 g/kg	11.09 ± 0.14			
CC(C)C[C@H](NC(=O)[C@H]1O[C@@H]1C(=O)O)C(=O)NCCCCN=C(N)N (relative stereo) [Example E-64, L-trans-epoxysuccinyl-L-leucineamide (e-guanide)-butane]		11.09 ± 0.14	significantly suppressed the rise in the blood calcium concentration	10.20 ± 0.09	
CCCCC(NC(=O)C(CC(C)C)NC(C)=O)C(=O)CF (stereo not drawn) [Ac-Leu-Nle-CH2 F, 3-(N-acetyl-leucylamide)-1-fluoro-2-heptanone]		10.49 ± 0.09		10.13 ± 0.11	
CC(NC(=O)C(Cc1ccccc1)NC(=O)OCc1ccccc1)C(=O)CF (stereo not drawn) [Z-Phe-Ala-CH2 F, 3-(N-benzyloxycarbonylphenylalanylamide)-1-fluoro-2-butanone]		12.02 ± 0.20			did not exhibit an activity; also recorded: did not exhibit any action of normalizing the calcium concentration

Source: patent US5399743A, “Dipeptide derivative and prophylactic or therapeutic agent for bone diseases containing same as active ingredient” (Suntory Limited, priority 1992, dated 1995)
